Series [1] is described as follows: Oral bioavailability in dog at 1 mg/kg. The series is classed as ADME, organism-based, Canis lupus familiaris. The settings on record: in vivo.
A short description of series [2]: Oral bioavailability in monkey at 2.5 mg/kg. The settings on record: rhesus monkey, in vivo. The series is classed as ADME, organism-based, Macaca mulatta.
Series [3] can be described thus: Half life in monkey at 0.25 mg/kg, iv and 2.5 mg/kg, po. The settings on record: rhesus monkey, in vivo. The series is classed as ADME, organism-based, Macaca mulatta.
Series [4] addresses T1, Muscarinic acetylcholine receptor M1 (Homo sapiens) (UniProt P11229).
T1 sequence (whole entry): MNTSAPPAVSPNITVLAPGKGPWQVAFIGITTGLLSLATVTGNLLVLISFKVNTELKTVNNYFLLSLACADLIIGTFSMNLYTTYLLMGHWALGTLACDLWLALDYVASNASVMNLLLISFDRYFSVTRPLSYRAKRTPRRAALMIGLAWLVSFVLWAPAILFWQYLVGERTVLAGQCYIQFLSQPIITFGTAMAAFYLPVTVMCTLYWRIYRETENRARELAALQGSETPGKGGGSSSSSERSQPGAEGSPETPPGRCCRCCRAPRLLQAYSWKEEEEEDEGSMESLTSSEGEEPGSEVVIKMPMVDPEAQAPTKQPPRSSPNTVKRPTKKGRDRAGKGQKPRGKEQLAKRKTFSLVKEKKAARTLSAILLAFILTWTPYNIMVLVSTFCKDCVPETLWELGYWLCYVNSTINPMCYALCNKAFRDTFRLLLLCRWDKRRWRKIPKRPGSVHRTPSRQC
Put plainly: Intrinsic activity at muscarinic M1 receptor (unknown origin) by calcium mobilization assay. The series is classed as functional. A general note: A change in cytosolic calcium serves as a functional read-out for many receptors and channels.

For series [5], the system named is Rattus norvegicus. As to the kind of experiment: Antipsychotic-like effect in po dosed rat assessed as methamphetamine-induced locomotor hyperactivity. The series is classed as functional.
In series [6] the target is Alpha-1A adrenergic receptor (Rattus norvegicus) (UniProt P43140). As to the kind of experiment: Inhibition of rat alpha1A adrenergic receptor at 3 uM by radioligand binding assay.
Series [7] concerns the target Alpha-1D adrenergic receptor (Homo sapiens) (UniProt P25100). Put plainly: Inhibition of human alpha1D adrenergic receptor at 3 uM by radioligand binding assay.
For series [8], the target named is Alpha-2A adrenergic receptor (Homo sapiens) (UniProt P08913). Put plainly: Inhibition of human alpha2A adrenergic receptor at 3 uM by radioligand binding assay.
Series [9] concerns the target L-type calcium channel, dihydropyridine binding site (Rattus norvegicus, UniProt P22002+P27732+Q02485). Put plainly: Inhibition of rat L-type calcium channel dihydropyridine binding site at 3 uM by radioligand binding assay. The series is classed as protein assay.
The species entered for series [10] is Rattus norvegicus. As to the kind of experiment: Inhibition of rat N-type calcium channel at 3 uM by radioligand binding assay.
The target in series [11] is Endothelin-1 receptor (Homo sapiens) (UniProt P25101). As to the kind of experiment: Inhibition of human ETA receptor at 3 uM by radioligand binding assay.
Series [12] is filed under the species Rattus norvegicus. Put plainly: Inhibition of rat GABAA central type receptor flunitrazepam binding site at 3 uM by radioligand binding assay.
Series [13] has as its target Glucocorticoid receptor (Homo sapiens) (UniProt P04150). Put plainly: Inhibition of human glucocortlicoid receptor at 3 uM by radioligand binding assay.
The target in series [14] is Gamma-aminobutyric acid type B receptor subunit 1 (Homo sapiens) (UniProt Q9UBS5). As to the kind of experiment: Inhibition of human GABAB1A receptor at 3 uM by radioligand binding assay.
Series [15] addresses Glutamate NMDA receptor (Rattus norvegicus) (UniProt P35439+Q00959+Q00960+Q00961+Q62645+Q8VHN2+Q9R1M7). As to the kind of experiment: Inhibition of rat NMDA receptor agonist binding site at 3 uM by radioligand binding assay. The series is classed as protein-complex assay.
For series [16], the target named is Neuropeptide Y receptor type 1 (Homo sapiens) (UniProt P25929). As to the kind of experiment: Inhibition of human neuropeptide YY1 receptor at 3 uM by radioligand binding assay.
The target in series [17] is Delta-type opioid receptor (Homo sapiens) (UniProt P41143). As to the kind of experiment: Inhibition of human delta opioid receptor at 3 uM by radioligand binding assay.
The target in series [18] is Kappa-type opioid receptor (Homo sapiens) (UniProt P41145). Put plainly: Inhibition of human kappa opioid receptor at 3 uM by radioligand binding assay.
The species entered for series [19] is Rattus norvegicus. As to the kind of experiment: Inhibition of rat Rolipram binding site at 3 uM by radioligand binding assay.
For series [20], the target named is 5-hydroxytryptamine receptor 2B (Homo sapiens) (UniProt P41595). As to the kind of experiment: Inhibition of human 5-HT2B receptor at 3 uM by radioligand binding assay.
The target in series [21] is T1, Muscarinic acetylcholine receptor M1 (Homo sapiens). As to the kind of experiment: Agonist activity at muscarinic M1 receptor (unknown origin) at 0.3 uM by calcium mobilization assay. The series is classed as functional.
Series [22] deals with Voltage-gated inwardly rectifying potassium channel KCNH2 (Homo sapiens, UniProt Q12809). As to the kind of experiment: Inhibition of human ERG channel.
In another series the test system is Cricetinae. The settings on record: 3 uM.

The results in this text go back to ChEMBL document CHEMBL3351422, “Discovery of N-substituted 7-azaindoline derivatives as potent, orally available M1 and M4 muscarinic acetylcholine receptors selective agonists” (Bioorg Med Chem Lett, 2014).

Bounds are passed on as bounds.

Sequence of 5-hydroxytryptamine receptor 2B (Homo sapiens) (P41595 whole entry): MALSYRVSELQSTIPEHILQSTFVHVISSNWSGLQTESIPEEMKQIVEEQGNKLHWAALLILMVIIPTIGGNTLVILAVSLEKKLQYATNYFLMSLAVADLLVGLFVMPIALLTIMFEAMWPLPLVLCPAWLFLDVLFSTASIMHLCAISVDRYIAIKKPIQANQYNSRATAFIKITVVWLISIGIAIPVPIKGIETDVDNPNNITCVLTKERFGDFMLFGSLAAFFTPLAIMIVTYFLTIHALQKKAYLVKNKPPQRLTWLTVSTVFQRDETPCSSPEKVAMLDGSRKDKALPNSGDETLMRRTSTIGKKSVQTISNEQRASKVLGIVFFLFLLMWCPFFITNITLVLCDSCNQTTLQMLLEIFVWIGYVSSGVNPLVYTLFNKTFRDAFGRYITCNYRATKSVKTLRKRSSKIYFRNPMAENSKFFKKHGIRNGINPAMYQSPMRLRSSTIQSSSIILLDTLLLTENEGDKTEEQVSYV
Sequence of Neuropeptide Y receptor type 1 (Homo sapiens) (P25929 whole entry): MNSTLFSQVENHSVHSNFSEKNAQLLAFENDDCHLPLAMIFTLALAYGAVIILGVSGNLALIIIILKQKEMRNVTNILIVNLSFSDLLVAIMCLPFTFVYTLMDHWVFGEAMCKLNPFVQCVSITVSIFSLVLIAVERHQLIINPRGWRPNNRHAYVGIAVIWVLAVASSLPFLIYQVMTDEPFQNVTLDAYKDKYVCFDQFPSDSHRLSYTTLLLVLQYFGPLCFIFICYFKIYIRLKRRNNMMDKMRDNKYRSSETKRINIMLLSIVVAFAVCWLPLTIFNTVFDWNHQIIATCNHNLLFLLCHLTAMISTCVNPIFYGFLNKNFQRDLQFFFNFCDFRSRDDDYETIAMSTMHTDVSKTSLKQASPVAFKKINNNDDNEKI
Sequence of Voltage-gated inwardly rectifying potassium channel KCNH2 (Q12809 whole entry): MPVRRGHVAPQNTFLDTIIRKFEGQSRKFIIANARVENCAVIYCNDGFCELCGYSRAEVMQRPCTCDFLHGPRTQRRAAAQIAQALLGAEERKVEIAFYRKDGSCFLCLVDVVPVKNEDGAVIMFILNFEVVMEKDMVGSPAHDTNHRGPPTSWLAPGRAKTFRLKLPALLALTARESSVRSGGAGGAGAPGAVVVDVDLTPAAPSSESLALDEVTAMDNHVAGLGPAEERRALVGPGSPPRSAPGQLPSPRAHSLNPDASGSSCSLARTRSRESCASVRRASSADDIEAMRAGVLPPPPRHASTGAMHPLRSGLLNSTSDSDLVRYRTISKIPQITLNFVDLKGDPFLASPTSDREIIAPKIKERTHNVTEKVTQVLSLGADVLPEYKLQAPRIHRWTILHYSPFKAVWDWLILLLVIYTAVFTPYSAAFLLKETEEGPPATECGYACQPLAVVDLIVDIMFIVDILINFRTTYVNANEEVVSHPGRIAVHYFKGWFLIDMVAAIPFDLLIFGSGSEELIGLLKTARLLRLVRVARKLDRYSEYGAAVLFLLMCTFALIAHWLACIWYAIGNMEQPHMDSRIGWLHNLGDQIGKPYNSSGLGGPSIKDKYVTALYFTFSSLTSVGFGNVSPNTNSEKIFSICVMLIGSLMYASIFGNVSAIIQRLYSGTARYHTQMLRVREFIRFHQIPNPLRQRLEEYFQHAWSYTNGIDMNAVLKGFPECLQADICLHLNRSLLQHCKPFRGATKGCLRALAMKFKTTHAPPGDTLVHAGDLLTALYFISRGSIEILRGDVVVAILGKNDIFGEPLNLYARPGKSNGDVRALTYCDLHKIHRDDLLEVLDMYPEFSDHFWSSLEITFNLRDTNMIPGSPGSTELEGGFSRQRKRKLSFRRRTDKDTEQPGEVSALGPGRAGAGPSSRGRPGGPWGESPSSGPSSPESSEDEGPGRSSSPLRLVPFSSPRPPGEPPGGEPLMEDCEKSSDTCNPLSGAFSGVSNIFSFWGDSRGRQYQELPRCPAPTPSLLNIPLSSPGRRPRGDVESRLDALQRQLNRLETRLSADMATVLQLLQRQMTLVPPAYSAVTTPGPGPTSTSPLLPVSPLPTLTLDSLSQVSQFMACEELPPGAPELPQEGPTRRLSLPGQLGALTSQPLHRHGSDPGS
Sequence of Alpha-1A adrenergic receptor (Rattus norvegicus) (P43140 whole entry): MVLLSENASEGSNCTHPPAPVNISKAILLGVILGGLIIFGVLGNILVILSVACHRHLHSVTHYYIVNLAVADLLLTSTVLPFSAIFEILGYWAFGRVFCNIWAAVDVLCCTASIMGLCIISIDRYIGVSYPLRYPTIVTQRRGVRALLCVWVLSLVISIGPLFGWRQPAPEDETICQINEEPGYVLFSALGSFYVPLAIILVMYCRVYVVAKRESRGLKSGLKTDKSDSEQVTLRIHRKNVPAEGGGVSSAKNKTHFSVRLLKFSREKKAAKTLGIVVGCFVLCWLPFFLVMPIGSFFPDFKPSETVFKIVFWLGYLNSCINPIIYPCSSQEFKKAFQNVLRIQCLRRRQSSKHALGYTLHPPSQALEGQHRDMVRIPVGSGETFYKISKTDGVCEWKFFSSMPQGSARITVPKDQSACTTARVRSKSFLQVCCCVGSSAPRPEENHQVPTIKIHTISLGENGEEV
Sequence of Endothelin-1 receptor (Homo sapiens) (P25101 whole entry): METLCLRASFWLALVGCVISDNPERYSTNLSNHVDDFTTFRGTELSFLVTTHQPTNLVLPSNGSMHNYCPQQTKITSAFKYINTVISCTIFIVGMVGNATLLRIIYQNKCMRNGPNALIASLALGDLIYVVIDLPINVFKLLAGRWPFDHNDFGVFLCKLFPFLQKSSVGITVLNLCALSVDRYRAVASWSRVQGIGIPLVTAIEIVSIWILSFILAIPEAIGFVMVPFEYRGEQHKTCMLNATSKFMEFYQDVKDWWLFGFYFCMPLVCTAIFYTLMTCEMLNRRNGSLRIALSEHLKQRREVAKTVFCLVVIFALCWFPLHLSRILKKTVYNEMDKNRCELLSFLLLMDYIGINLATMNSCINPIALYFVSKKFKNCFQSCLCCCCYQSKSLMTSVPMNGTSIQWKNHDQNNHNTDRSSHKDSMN
Sequence of Kappa-type opioid receptor (Homo sapiens) (P41145 whole entry): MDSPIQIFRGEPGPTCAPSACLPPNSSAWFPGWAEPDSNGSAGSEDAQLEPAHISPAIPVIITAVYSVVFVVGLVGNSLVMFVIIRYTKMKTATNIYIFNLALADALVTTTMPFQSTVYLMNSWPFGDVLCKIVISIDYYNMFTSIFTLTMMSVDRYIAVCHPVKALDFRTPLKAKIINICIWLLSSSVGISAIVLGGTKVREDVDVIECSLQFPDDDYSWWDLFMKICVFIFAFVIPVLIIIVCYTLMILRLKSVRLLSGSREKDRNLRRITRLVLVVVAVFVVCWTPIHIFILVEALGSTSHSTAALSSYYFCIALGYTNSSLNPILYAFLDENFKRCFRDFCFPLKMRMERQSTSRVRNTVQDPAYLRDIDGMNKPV
Sequence of Gamma-aminobutyric acid type B receptor subunit 1 (Homo sapiens) (Q9UBS5 whole entry): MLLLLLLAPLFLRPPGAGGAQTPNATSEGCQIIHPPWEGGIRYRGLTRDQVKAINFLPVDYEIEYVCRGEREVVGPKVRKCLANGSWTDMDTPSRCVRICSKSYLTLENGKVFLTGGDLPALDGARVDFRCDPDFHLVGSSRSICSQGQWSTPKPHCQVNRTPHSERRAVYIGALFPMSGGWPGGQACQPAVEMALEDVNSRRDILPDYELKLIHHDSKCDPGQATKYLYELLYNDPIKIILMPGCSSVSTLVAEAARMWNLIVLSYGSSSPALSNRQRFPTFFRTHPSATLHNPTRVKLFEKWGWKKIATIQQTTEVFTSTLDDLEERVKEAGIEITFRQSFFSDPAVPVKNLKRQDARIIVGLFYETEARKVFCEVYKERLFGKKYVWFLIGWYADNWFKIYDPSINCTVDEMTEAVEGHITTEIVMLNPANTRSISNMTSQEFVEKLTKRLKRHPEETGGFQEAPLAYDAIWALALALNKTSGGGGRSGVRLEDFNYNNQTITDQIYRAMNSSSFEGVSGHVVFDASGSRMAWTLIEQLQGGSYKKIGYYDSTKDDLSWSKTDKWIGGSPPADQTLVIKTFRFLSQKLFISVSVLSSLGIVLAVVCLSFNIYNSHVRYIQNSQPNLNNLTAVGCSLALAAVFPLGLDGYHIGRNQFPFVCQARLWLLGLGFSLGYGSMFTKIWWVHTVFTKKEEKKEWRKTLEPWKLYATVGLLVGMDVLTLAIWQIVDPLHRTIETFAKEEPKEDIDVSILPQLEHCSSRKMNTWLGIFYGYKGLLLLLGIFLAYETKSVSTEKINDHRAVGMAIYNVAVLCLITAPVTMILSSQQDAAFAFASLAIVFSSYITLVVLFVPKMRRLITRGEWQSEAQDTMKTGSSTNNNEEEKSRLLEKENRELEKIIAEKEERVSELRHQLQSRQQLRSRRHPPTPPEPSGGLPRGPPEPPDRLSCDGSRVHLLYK
Sequence of Alpha-2A adrenergic receptor (Homo sapiens) (P08913 whole entry): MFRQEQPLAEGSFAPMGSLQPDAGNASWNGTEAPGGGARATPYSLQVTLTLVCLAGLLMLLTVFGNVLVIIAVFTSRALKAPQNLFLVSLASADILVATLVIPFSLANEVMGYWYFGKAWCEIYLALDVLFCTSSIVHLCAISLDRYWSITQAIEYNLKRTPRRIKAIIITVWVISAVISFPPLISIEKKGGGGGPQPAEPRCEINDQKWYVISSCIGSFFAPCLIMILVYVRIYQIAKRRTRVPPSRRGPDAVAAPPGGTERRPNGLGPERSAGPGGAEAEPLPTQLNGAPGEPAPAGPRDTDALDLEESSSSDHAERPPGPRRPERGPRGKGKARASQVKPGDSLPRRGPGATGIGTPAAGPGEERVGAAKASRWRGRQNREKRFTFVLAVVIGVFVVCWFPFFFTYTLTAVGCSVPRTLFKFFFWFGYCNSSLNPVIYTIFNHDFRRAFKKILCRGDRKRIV
Description for Cricetinae: Inhibition of hamster potassium channel at 3 uM by radioligand binding assay

As a reminder, the bioavailability is dose-corrected exposure relative to a reference, in per cent. A word on the half-life: it is how long it takes for the measured level to halve. The ED50 is the dose that gives a 50% effect, or the effect in half of the subjects. As usually defined, the inhibition is the relative decrease from the control value, in per cent. The IC50 is the point on the concentration scale where inhibition reaches its midpoint. With `CCOC(=O)N1CCC(CN2CCC3(CC2)CN(C(=O)N(C)C)c2ncccc23)CC1.O=C(O)/C=C/C(=O)O`, the results for the bioavailability in series [1] and in series [2] were 49.3% and 39.8%, respectively. The half-life in series [3] is 4.76 h. In addition, in series [4], the Intrinsic activity turned out to be 76%. In addition, in the series with Rattus norvegicus [5], the median effective dose (ED50) turned out to be 1.44 mg/kg. Moreover, the inhibition in series [6] is 37%; in [7], 10%; in series [8], -7%; in the series filed under Rattus norvegicus [10], 4%; in [11], 10%; in the series listed under Rattus norvegicus [12] it was -5%. The inhibition in series [13] is 15%; in series [14], 2%; in series [15], 4%; in [16], -2%; in series [17], -1%; in [18], 7%. Further, the inhibition turned out to be 16% in the series filed under Rattus norvegicus [19], 11% in series [20] and 6% with Cricetinae. In addition, the inhibition at 3 µM in series [9] is 11%. Further, in series [21], the Activity came to 76%. This compound showed a 50% inhibitory concentration (IC50) in [22] greater than 10 µM.
